Data published in US20050009929A1, “Inhibition of the asexual reproduction of fungi” (priority 2001, published 2005).

System: Aspergillus niger
Experiment: Effect of farnesol on the sporulation of Aspergillus niger on malt extract agar
Assay type: cell-based
Settings: 5 days at 25° C.; for Sporulation [%]: evaluated by appearance
Experimental: Quantities of 100 μl of a cell suspension of Aspergillus niger (1.5·10^7 cells/ml) were plated out onto malt agar extract (Merck) to which farnesol had been added in various quantities of 0; 25; 62.5; 125; 250 and 500 μM.

CC(C)=CCCC(C)=CCCC(C)=CCO [farnesol]
Sporulation [%] (farnesol 25 μM in agar): 90%
Sporulation [%] (farnesol 62.5 μM in agar): 75%
Sporulation [%] (farnesol 125 μM in agar): 50%
Sporulation [%] (farnesol 250 μM in agar): 10%
inhibition of sporulation (in words) (farnesol 500 μM in agar): completely suppressed
Sporulation [%] (farnesol 500 μM in agar): 0%
inhibition of growth (farnesol 25 to 500 μM in agar): None of the farnesol concentrations used inhibited growth
